The values below come from US7301020B2, “Macrolide analogs and methods for identifying same” (priority 2003, dated 2007).

Series [1] addresses T1, Prodan-G-actin (Oryctolagus cuniculus, UniProt P68135). Nature of the series: Competition-binding assay with GS1 and CapG on Prodan-G-actin. Set-up: F-actin is purified from rabbit skeletal muscle using a standard protocol; from tissue; host or cells: actin from rabbit skeletal muscle; CapG and GS1 expressed in E. coli M15; species or system rabbit. How it is done: FIG. 4: (A) CapG: (a), Prodan-G-actin (100 nM), (b), Prodan-G-actin-CapG; (c), same as (b) in the presence of 0.2 μM KabC; (B); GS1: (a), Prodan-G-actin 100 nM; (b), Prodan-G-actin-GS1; (c), same as (b) in the presence of 0.2 μM KabC.
Characterization of actin binding proteins: The actin-binding properties of the ABPs used in this study are evaluated from changes in the fluorescence emission spectrum of Prodan-actin and actin polymerization assays as described by Marriott et al (1988).
Trisoxazolemacrolides specifically compete with GS1 for the (+)-end binding site on actin. Gelsolin, a monomeric 80 kD cytoskeleton protein composed of six domains interacts with actin filaments in a complex, Ca^2+-dependent manner (Janmey et al, 1985; Burtnick et al, 1997). Gelsolin exerts two major effects once bound to an actin filament: first it severs the filament and second it remains tightly bound to the severed (+)-end and serves to block, or cap, further growth. […] Structural analyses of G-actin complexes with GS1 (McLaughlin et al, 1993) and KabC show these unrelated molecules bind to G-actin through common contact sites that include a patch of hydrophobic residues on the surface between sub-domains 1 and 3 and within the cleft that forms between the interface of sub-domains 1 and 3 (McLaughlin et al, 1993;). GS1 binding to Prodan-G-actin shifts the average energy of the fluorescence emission to the red and is accompanied by a decrease in the quantum yield (FIG. 4A) but not to the extent seen in the KabC-G-actin complex (FIG. 2).
Trisoxazolemacrolides specifically compete with CapG for the (+)-end binding site on actin. CapG, a Ca^2+-dependent, (+)-end actin filament capping protein, is found at high levels in macrophage cells where it regulates membrane ruffling and cell protrusions associated with phagocytosis and motility (Botelho et. al., 2000). […] The Ca^2+-dependent binding of CapG to Prodan-G-actin is accompanied by a dramatic blue-shift in the emission spectrum and an increase in quantum yield (FIG. 4B, curve b). The difference in fluorescence emission spectra between free and CapG-bound Prodan-G-actin is used to quantify the parameters for this binding reaction. The G-actin-CapG complex exists as a 1:1 complex and has a dissociation constant of 100 nM (data not shown). […] This conclusion is consistent with a comparison of high-resolution structures of G-actin with GS1 and KabC and a preliminary analysis of a 2.8 Angstrom structure of a CapG mutant (Vorobiev et al, PDB database, 2002). […] However the emission properties of the CapG-Prodan-G-actin complex are unaffected by the binding of LatA, DNAse and thymosin β4 (Tβ4), which is consistent with some structural data showing that these sequestering molecules bind closer to the ATP pocket and DNAse binding loop (Kabsch et al, 1990).

Another series has as its system NBT-II cells. Nature of the series: Effect of macrolides on NBT-II cells (live cell microscopy). The series is classed as cell-based, rat. How it is done: FIG. 7: Effect of KabC on NBT-II cells. NBT-II cells are imaged after 16 hours of drug treatment. KabC concentrations: (A), Control; (B), 10 nM; (C), 100 nM and (D), 1000 nM.
Cell Culture: Rat bladder NBT-II carcinoma cells and mouse NIH 3T3 fibroblast cells are maintained and treated with external drugs as described in Choidas et al (1998).
Live cell microscopy: A multi-model microscope workstation was used to image phase contrast and fluorescence images of living cells (Choidas et al, 1998). Cells are maintained at 37° in a Hepes based culture medium in a Bioptechs cell perfusion chamber (Choidas et al, 1998).

The target of series [2] is T1, Prodan-G-actin. The series can be described thus: Kinetic analysis of binding to Prodan-G-actin (stopped-flow and slow phase). Set-up: F-actin is purified from rabbit skeletal muscle using a standard protocol; Prodan (Acrylodan) fluorophore, chemical label on the thiol of Cys374; from tissue; host or cells: rabbit skeletal muscle; species or system rabbit. How it is done: FIG. 3: Kinetic analyses of KabC binding of Prodan labeled G-actin. (A-B). Prodan-actin (0.1 μM) and KabC, loaded into separated syringes, were rapidly mixed within ˜1 msec dead-time. The concentrations of KabC were 0.0 μM (a), 1.0 μM (b), 1.5 μM (c), 2.0 μM (d) and 2.5 μM (data not shown), respectively. The decreases in emission intensity were well fitted with single exponential functions to determine the observed rate, kobs. The observed rates are plotted as a function of the [KabC] in panel (B).
Kinetic analysis of binding reactions. The kinetics of the KabC interaction with Prodan-actin is determined, using an Applied Photophysics SX.18MV Stopped-flow spectrometer, by following the decrease in the emission intensity of Prodan-actin at 25° C. Prodan was excited at 385 nm and emission was collected with a 470 nm (+/−5 nm) band-pass filter. In all cases the decrease in emission intensity was best fit with a single exponential function, which was then used to determine the observed rate, kobs. Kinetic constants of on rate (kon) and off rate (koff) were calculated according to the following equation: kobs=kon[KabC]+koff. The kinetics of the slower binding step observed in the interaction of KabC with Prodan-G-actin interaction is measured by measuring the ratio of fluorescence signals at 465 nm and 530 nm. The decay of this ratio is fit using a single exponential rate.

The next series addresses T2, Prodan-labeled G-actin (Oryctolagus cuniculus, UniProt P68135).
T2 construct: F-actin is purified from rabbit skeletal muscle using a standard protocol; Prodan (Acrylodan) fluorophore, chemical label on the thiol of Cys374; from tissue; host or cells: rabbit skeletal muscle
Nature of the series: Prodan-G-actin titration: binding stoichiometry and dissociation constant. Particulars: Prodan-G-actin titration; read-out: dissociation constant of G-actin complex. Further details: species or system rabbit. How it is done: FIG. 2: (A), Stoichiometric binding of Prodan-labeled G-actin (1 μM) in G-buffer with KabC at final concentrations of in μm, a: 0.0; b: 0.1; c: 0.2; d: 0.3; e: 0.4; f: 0.5; g: 0.6; h: 0.7; i: 0.8; j: 0.9; k: 1.0; l: 1.1; m: 1.2; n: 1.5 (B), Plot of the integrated intensity in (A) against [KabC] yields a binding stoichiometry of 1:1.
Prodan-actin: Actin is labeled with the thiol probe, Acrylodan (Molecular Probes, Eugene, Oreg.) using a standard protocol (Marriott et al, 1988). Rabbit muscle G-actin is labeled with the thiol reactive, environmentally sensitive probe, Acrylodan, according to the inventor's earlier publication (Marriott et al, 1988). […]
Determination of the binding stoichiometry and dissociation constants for G-actin complexes with ABPs and macrolide drugs: The change in the quantum yield and/or emission energy of Prodan-actin is used to quantify the interaction of CapG and macrolides with G-actin. The stoichiometry of the CapG-G-actin and macrolide-G-actin complex is determined by titrating Prodan-G-actin at 1 μM with increasing amounts of CapG or the macrolide from 0.1^−10 μM. […] The equilibrium binding constant is determined by titrating a constant amount of Prodan labeled G-actin at 0.05˜0.1 μM in G- or F-buffer with incrementally increasing amounts of the macrolide or CapG over a range of 10 nM to 10 μM. […]

Regarding DNAse, on Prodan-G-actin [1], the “effect of binding on emission properties of CapG-Prodan-G-actin complex” value is listed as “unaffected”.

With `COC(CC1OC(=O)CC(O)C/C=C/C(=O)C(C)C(OC)c2coc(n2)-c2coc(n2)-c2coc(n2)/C=C/CCC1C)C(C)CCC(=O)C(C)C(C/C=C/N(C)C=O)OC` (stereo not drawn) [Hal, halichondramide], in the series on NBT-II cells, the “cytotoxic activity on NBT II epithelia cells” value (from here on “cytotoxic activity”) is “concentration dependent cytotoxic activity”. At Prodan-G-actin [2], the “binding steps in reaction with G-actin” value is 1st and 2nd-binding steps are common. On to `CO[C@H]1C[C@H](CC[C@H](C)[C@H](O)[C@H](C)[C@H]2OC(=O)/C=C/C(C)=C/C[C@H](O)C[C@@H]3C=CC[C@@H](C[C@H](OC)[C@@H](C)[C@@H](O)C[C@@H](O)[C@H](C)[C@@H]([C@@H](C)[C@@H](O)[C@@H](C)CC[C@H]4C[C@H](OC)C[C@H](C)O4)OC(=O)/C=C/C(C)=C/C[C@H](O)C[C@@H]4C=CC[C@@H](C[C@H](OC)[C@@H](C)[C@@H](O)C[C@@H](O)[C@@H]2C)O4)O3)O[C@@H](C)C1` [SwiA, Swinholide A], for which the “binding site on actin by competition-binding assay” value on Prodan-G-actin [1] was “bind to the same site on actin as KabC, CapG and GS1”. The “cytotoxic activity” value in the series on NBT-II cells is “concentration dependent cytotoxic activity”. As for `CO[C@H]1C[C@H](CC[C@H](C)[C@H](O)[C@H](C)[C@H]2OC(=O)/C(C)=C/C[C@H](O)C[C@@H]3C=CC[C@@H](C[C@H](OC)[C@@H](C)[C@@H](O)C[C@@H](O)[C@H](C)[C@@H]([C@@H](C)[C@@H](O)[C@@H](C)CC[C@H]4C[C@H](OC)C[C@H](C)O4)OC(=O)/C(C)=C/C[C@H](O)C[C@@H]4C=CC[C@@H](C[C@H](OC)[C@@H](C)[C@@H](O)C[C@@H](O)[C@@H]2C)O4)O3)O[C@@H](C)C1` [MisA, misakinolide A], at Prodan-G-actin [1], the “binding site on actin by competition-binding assay” value is “bind to the same site on actin as KabC, CapG and GS1”. Also, the “cytotoxic activity” value with NBT-II cells is “concentration dependent cytotoxic activity”.

For `C/C1=C/C(=O)O[C@@H]2C[C@@H](CC[C@H](C)/C=C\C=C\CC1)O[C@@](O)([C@@H]1CSC(=O)N1)C2` [LatA], the “effect of binding on emission properties of CapG-Prodan-G-actin complex” value on Prodan-G-actin [1] is “unaffected”. The same measure, in the same setting: under “thymosin β4: actin monomer sequestering protein” stands “unaffected”. As for Ulapualide A [UlaA], the “cytotoxic activity” value with NBT-II cells is listed as “concentration dependent cytotoxic activity”. Also, on Prodan-G-actin [2], the “binding steps in reaction with G-actin” value was 1st and 2nd-binding steps are common.

B1: CapG: Ca^2+-dependent, (+)-end actin filament capping protein, cloned from mouse brain cDNA library (protein, UniProt P24452 1-352, looked up)
Macrophage-capping protein: MYTPIPQSGSPFPASVQDPGLHIWRVEKLKPVPIARESHGIFFSGDSYLVLHNGPEEASHLHLWIGQQSSRDEQGACAVLAVHLNTLLGERPVQHREVQGNESDLFMSYFPRGLKYYREGGVESAFHKTTSGARGAAIRKLYQVKGKKNIRATERPLSWDSFNTGDCFILDLGQNIFAWCGGKSNILERNKARDLALAIRDSERQGKAQVEIITDGEEPAEMIQVLGPKPALKEGNPEEDITADQTRPNAQAAALYKVSDATGQMNLTKVADSSPFASELLIPDDCFVLDNGLCAQIYIWKGRKANEKERQAALQVADGFISRMRYSPNTQVEILPQGRESPIFKQFFKNWK
On to B1, for which, in the series with Prodan-labeled G-actin, the Kd was found to be 100 nM.
